Where two headings read alike, the source gives them in different places.
How the values were obtained:
[1] = test system: Caco-2 human colon carcinoma cell line; test: Caco-2 permeability assay; type: in vitro ADME; settings: SI table, remark in Recovery A:B cell
Protocol: (§1) Whether the inhibition of ERAP1 by 1 would translate to in-cell activity would depend on its permeability, as well as its affinity.
(§2) Papp (apparent permeability) was determined in the Caco-2 human colon carcinoma cell line (ATCC). Cells were maintained (DMEM with 10% fetal bovine serum, penicillin, and streptomycin) in a humidified atmosphere with 5% CO2/95% air for 10 days. Cells were plated out onto a cell culture assembly plate (Millipore, UK), and monolayer confluency was checked using a TEER electrode prior to the assay. Media was washed off and replaced in the appropriate apical and basal wells with HBSS buffer (pH 7.4) containing compound (10 μM, 1% DMSO). The Caco-2 plate was incubated for 2 h at 37 °C, and Lucifer Yellow was used to confirm membrane integrity after the assay. Samples from the apical and basolateral chambers were analyzed using a Waters TQ-S LC-MS/MS system.

[2] = Caco-2 permeability assay; type: in vitro ADME, human; settings: human; for recovery at 2 h, 10 μM: Caco-2, pH 7.4, SI table; for Papp B→A at 2 h, 10 μM / Papp A→B at 2 h, 10 μM: Caco-2, pH 7.4; for Papp B→A at 2 h, 10 μM: SI table; for Papp A→B at 2 h, 10 μM: apical to basolateral, limit of quantification 1.0 x 10^−6 cm/s, read-out: CACO2 Papp A:B
Protocol: as §1, §2

human ERAP2 = human ERAP2 (Homo sapiens, UniProt Q6P179); test: ERAP2 R-AMC aminopeptidase assay; settings: ERAP2 10 nM, R-AMC 10 µM, pH8.0, 30 min
Chain of human ERAP2 (Q6P179 whole entry): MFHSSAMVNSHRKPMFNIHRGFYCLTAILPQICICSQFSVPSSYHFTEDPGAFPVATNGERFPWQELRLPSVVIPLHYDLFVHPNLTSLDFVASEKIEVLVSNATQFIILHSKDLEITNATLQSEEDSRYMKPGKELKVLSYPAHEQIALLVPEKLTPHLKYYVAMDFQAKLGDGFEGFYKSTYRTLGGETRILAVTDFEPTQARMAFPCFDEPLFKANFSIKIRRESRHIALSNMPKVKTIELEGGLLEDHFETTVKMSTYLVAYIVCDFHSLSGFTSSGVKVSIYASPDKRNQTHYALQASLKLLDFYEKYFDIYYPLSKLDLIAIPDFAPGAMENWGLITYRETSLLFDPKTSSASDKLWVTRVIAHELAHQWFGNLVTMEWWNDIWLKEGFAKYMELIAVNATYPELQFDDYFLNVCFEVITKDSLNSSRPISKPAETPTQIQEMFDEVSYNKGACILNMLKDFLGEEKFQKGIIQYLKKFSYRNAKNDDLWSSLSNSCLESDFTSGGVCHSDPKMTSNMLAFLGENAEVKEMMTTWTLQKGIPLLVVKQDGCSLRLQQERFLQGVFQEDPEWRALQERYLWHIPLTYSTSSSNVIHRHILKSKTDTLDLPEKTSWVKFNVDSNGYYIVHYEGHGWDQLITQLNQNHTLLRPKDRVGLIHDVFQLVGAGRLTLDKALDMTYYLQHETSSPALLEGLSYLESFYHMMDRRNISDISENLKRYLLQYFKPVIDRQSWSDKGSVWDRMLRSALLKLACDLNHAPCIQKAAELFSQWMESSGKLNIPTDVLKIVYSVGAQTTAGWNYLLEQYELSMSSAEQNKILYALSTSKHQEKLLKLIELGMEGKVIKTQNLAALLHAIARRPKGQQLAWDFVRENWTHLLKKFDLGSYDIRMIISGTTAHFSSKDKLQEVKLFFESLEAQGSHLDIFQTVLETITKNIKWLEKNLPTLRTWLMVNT
Description: Conditions were selected whereby substrate concentrations were at or below Km, so that IC50 values could be compared between proteins for competitive ligands.
Briefly, the assay consists in measuring the fluorescence of 7-amido-4-methylcoumarin (AMC) released by the enzymatic hydrolysis of one of the short peptide substrates: Leucine-AMC (Sigma, catalogue # L2145) by the ERAP1 enzyme, Arginine-AMC (Sigma, catalogue # A2027) by the ERAP2 enzyme or Alanine-AMC (Sigma, catalogue #A4302) by the APN (ANPEP/CD13) enzyme. […] After 30 minutes of reaction at room temperature, the fluorescence was red on a Pherastar FSX (BMG LabTech) or an Envision (Perkin Elmer) plate readers, with excitation and emission filters at 350 nm and 460 nm, respectively.

Compound	stability observation in Caco-2 assay A:B [1]	recovery at 2 h, 10 μM ([2]; read-out: Recovery A:B)	recovery at 2 h, 10 μM ([2]; read-out: Recovery B:A)	Papp B→A at 2 h, 10 μM [2]	Papp A→B at 2 h, 10 μM [2]	efflux ratio at 2 h, 10 μM ([2]; Caco-2, pH 7.4, PappB:A/PappA:B, read-out: CACO2 ER (efflux ratio))	ERAP2 pIC50 ± SEM (human ERAP2)	IC50 (human ERAP2; read-out: ERAP2 IC50 (geometric mean))
COC(=O)[C@H](Cc1c[nH]c2ccccc12)NC(=O)C(CC(C)C)CP(=O)(O)[C@@H](N)CCc1ccccc1 (stereo in doubt) [compound 17, ((R)-2-(((S)-3-(1H-indol-3-yl)-1-methoxy-1-oxopropan-2-yl)carbamoyl)-4-methylpentyl)((R)-1-amino-3-phenylpropyl)phosphinic acid]	Ester hydrolysis observed	2%	84%	< 1 ×10⁻⁶ cm/s	< 1 ×10⁻⁶ cm/s	–	–	–
CC(C)CC(CP(=O)(O)[C@@H](N)CCc1ccccc1)C(=O)N[C@@H](Cc1c[nH]c2ccccc12)C(=O)O (stereo in doubt) [compound 18, ((2R)-2-((((R)-1-amino-3-phenylpropyl)(hydroxy)phosphoryl)methyl)-4-methylpentanoyl)-L-tryptophan]	–	83%	96%	< 1 ×10⁻⁶ cm/s	< 1 ×10⁻⁶ cm/s	–	–	–
CC(C)C[C@H](CP(=O)(O)[C@@H](N)CCc1ccccc1)C(=O)N[C@@H](Cc1c[nH]c2ccccc12)C(N)=O [DG013A 1, ((S)-2-(((S)-1-amino-3-(1H-indol-3-yl)-1-oxopropan-2-yl)carbamoyl)-4-methylpentyl)((R)-1-amino-3-phenylpropyl)phosphinic acid, reference compound]	–	97%	100%	< 1 ×10⁻⁶ cm/s	< 1 ×10⁻⁶ cm/s	–	–	–
CC(C)C[C@@H](CP(=O)(O)[C@@H](N)CCc1ccccc1)C(=O)N[C@@H](Cc1c[nH]c2ccccc12)C(N)=O [DG013B 2, reference compound]	–	83%	90%	< 1 ×10⁻⁶ cm/s	< 1 ×10⁻⁶ cm/s	–	–	–
CC(C)C[C@H](CP(=O)(O)[C@H](CCc1ccccc1)NC(=O)OCc1ccccc1)C(=O)N[C@@H](Cc1c[nH]c2ccccc12)C(N)=O [compound 3, (2S)-2-((((1S)-2-amino-1-(1H-indol-3-ylmethyl)-2-oxo-ethyl)carbamoyl)-4-methyl-pentyl)-((1R)-1-(benzyloxycarbonylamino)-3-phenyl-propyl)phosphinic acid]	–	79%	84%	4.3 ×10⁻⁶ cm/s	< 1 ×10⁻⁶ cm/s	> 12	< 3.66	> 220 µM

From publication PMC8188423, “Investigating the phosphinic acid tripeptide mimetic DG013A as a tool compound inhibitor of the M1-aminopeptidase ERAP1” (Bioorganic & Medicinal Chemistry Letters, 2021)
